Patent US20230085307A1, “PYRIDAZINONE COMPOUND AND HERBICIDE” (NISSAN CHEMICAL CORPORATION, priority 2019, published 2023)

Experiments:
[1] = system: southern crabgrass; test: Test Example 5: herbicidal effect by foliage application, plastic box (Table 20, symbol F); assay type: in vivo, southern crabgrass (Digitaria ciliaris)
Outline: (§1)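 Plants sown in sterilized diluvial soil and grown 14 days in a greenhouse at 25° C to 30° C, then sprayed on the foliage with the compound's emulsion diluted in water to a predetermined herbicide amount. Injury to weeds and crops scored three weeks after application on a visual rating scale.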

[2] = system: green foxtail; test: Test Example 5: herbicidal effect by foliage application, plastic box (Table 20, symbol G); assay type: in vivo, green foxtail (Setaria viridis)
Outline: as §1

[3] = system: windgrass; test: Test Example 4: herbicidal effect by soil treatment (Table 19, symbol L); assay type: in vivo, windgrass (Apera spica-venti)
Outline: (§2)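 Three weeks of greenhouse growth at 25° C. to 30° C. followed a uniform surface spray of water-diluted emulsion at a predetermined herbicide amount. Seeds had been sown beforehand under about 1.5 cm of sterilized diluvial soil. Grading followed criteria set out in an earlier test.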

[4] = system: green foxtail; test: Test Example 4: herbicidal effect by soil treatment (Table 19, symbol G); assay type: in vivo, green foxtail (Setaria viridis)
Outline: as §2

[5] = system: windgrass; test: Test Example 5: herbicidal effect by foliage application, plastic box (Table 20, symbol L); assay type: in vivo, windgrass (Apera spica-venti); conditions: foliage application, AAH 320 g/ha, three weeks after application
Outline: as §1

[6] = system: lambsquarters; test: Test Example 5: herbicidal effect by foliage application, plastic box (Table 20, symbol O); assay type: in vivo, lambsquarters (Chenopodium album)
Outline: as §1

[7] = system: rice flat sedge; test: Test Example 3: herbicidal effect by foliage application, Wagner pot (Table 18, symbol E); assay type: in vivo, rice flat sedge (Cyperus iria); conditions: 320 g/ha
Outline: (§3)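 Plants were sown in alluvial soil held under 0.1–0.5 cm standing water and grown 14 days in a greenhouse at 25–30 °C. An emulsifiable formulation, water-diluted to the set dose, was then sprayed onto the foliage, and effects were scored three weeks later using previously defined criteria.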

[8] = system: lambsquarters; test: Test Example 4: herbicidal effect by soil treatment (Table 19, symbol O); assay type: in vivo, lambsquarters (Chenopodium album)
Outline: as §2

[9] = system: redroot pigweed; test: Test Example 5: herbicidal effect by foliage application, plastic box (Table 20, symbol N); assay type: in vivo, redroot pigweed (Amaranthus retroflexus)
Outline: as §1

[10] = system: wild oat; test: Test Example 4: herbicidal effect by soil treatment (Table 19, symbol I); assay type: in vivo, wild oat (Avena fatua)
Outline: as §2

[11] = system: velvetleaf; test: Test Example 4: herbicidal effect by soil treatment (Table 19, symbol M); assay type: in vivo, velvetleaf (Abutilon theophrasti)
Outline: as §2

[12] = system: persian speedwell; test: Test Example 5: herbicidal effect by foliage application, plastic box (Table 20, symbol R); assay type: in vivo, Persian speedwell (Veronica persica)
Outline: as §1

[13] = system: blackgrass; test: Test Example 5: herbicidal effect by foliage application, plastic box (Table 20, symbol J); assay type: in vivo, blackgrass (Alopecurus myosuroides)
Outline: as §1

[14] = system: Italian ryegrass; test: Test Example 4: herbicidal effect by soil treatment (Table 19, symbol K); assay type: in vivo, Italian ryegrass (Lolium multiflorum)
Outline: as §2

[15] = system: barnyard grass; test: Test Example 5: herbicidal effect by foliage application, plastic box (Table 20, symbol H); assay type: in vivo, barnyard grass (Echinochloa crus-galli)
Outline: as §1

[16] = system: Chinese sprangletop; test: Test Example 3: herbicidal effect by foliage application, Wagner pot (Table 18, symbol D); assay type: in vivo, chinese sprangletop (Leptochloa chinensis); conditions: 320 g/ha
Outline: as §3

[17] = system: blackgrass; test: Test Example 4: herbicidal effect by soil treatment (Table 19, symbol J); assay type: in vivo, blackgrass (Alopecurus myosuroides)
Outline: as §2

[18] = system: wild oat; test: Test Example 5: herbicidal effect by foliage application, plastic box (Table 20, symbol I); assay type: in vivo, wild oat (Avena fatua)
Outline: as §1

[19] = system: chickweed; test: Test Example 4: herbicidal effect by soil treatment (Table 19, symbol P); assay type: in vivo, common chickweed (Stellaria media)
Outline: as §2

[20] = system: Italian ryegrass; test: Test Example 5: herbicidal effect by foliage application, plastic box (Table 20, symbol K); assay type: in vivo, Italian ryegrass (Lolium multiflorum)
Outline: as §1

[21] = system: false cleavers; test: Test Example 4: herbicidal effect by soil treatment (Table 19, symbol Q); assay type: in vivo, false cleavers (Galium spurium)
Outline: as §2

[22] = system: chickweed; test: Test Example 5: herbicidal effect by foliage application, plastic box (Table 20, symbol P); assay type: in vivo, common chickweed (Stellaria media)
Outline: as §1

[23] = system: velvetleaf; test: Test Example 5: herbicidal effect by foliage application, plastic box (Table 20, symbol M); assay type: in vivo, velvetleaf (Abutilon theophrasti)
Outline: as §1

[24] = system: barnyard grass; test: Test Example 4: herbicidal effect by soil treatment (Table 19, symbol H); assay type: in vivo, barnyard grass (Echinochloa crus-galli)
Outline: as §2

[25] = system: persian speedwell; test: Test Example 4: herbicidal effect by soil treatment (Table 19, symbol R); assay type: in vivo, Persian speedwell (Veronica persica)
Outline: as §2

[26] = system: barnyard grass; test: Test Example 3: herbicidal effect by foliage application, Wagner pot (Table 18, symbol H); assay type: in vivo, barnyard grass (Echinochloa crus-galli); conditions: 320 g/ha
Outline: as §3

[27] = system: southern crabgrass; test: Test Example 4: herbicidal effect by soil treatment (Table 19, symbol F); assay type: in vivo, southern crabgrass (Digitaria ciliaris)
Outline: as §2

[28] = system: redroot pigweed; test: Test Example 4: herbicidal effect by soil treatment (Table 19, symbol N); assay type: in vivo, redroot pigweed (Amaranthus retroflexus); conditions: amount of applied herbicide 320 g/ha
Outline: as §2

[29] = foliage application, AAH 320 g/ha, three weeks after application
[30] = 320 g/ha, foliage application after 14-day growth, evaluated three weeks after application
[31] = amount of applied herbicide 320 g/ha

SMILES: CCCC(=O)Oc1c(OC)nn(C)c(=O)c1-c1c(-c2ccc(F)c(F)c2)sc2ccccc12 [1-173]
- F: southern crabgrass, herbicidal effect [1, 29]: 0 (Herbicidal rate of 5% or less (almost no effect))
- G: green foxtail, herbicidal effect [2, 29]: 3 (Herbicidal rate of 40% or more and less than 70%)
- L: windgrass, herbicidal effect rating ([3]; AAH 320 g/ha): 0 (Herbicidal rate of 5% or less (almost no effect))
- G: green foxtail, herbicidal effect rating ([4]; AAH 320 g/ha): 5 (Herbicidal rate of 90% or more (almost completely withered))
- L: windgrass, herbicidal effect [5]: 0 (Herbicidal rate of 5% or less (almost no effect))
- O: lambsquarters, herbicidal effect [6, 29]: 5 (Herbicidal rate of 90% or more (almost completely withered))
- herbicidal effect on E (rice flat sedge), rating 0-5 [7]: 5 (Herbicidal rate of 90% or more (almost completely withered))
- O: lambsquarters, herbicidal effect rating ([8]; AAH 320 g/ha): 5 (Herbicidal rate of 90% or more (almost completely withered))
- N: redroot pigweed, herbicidal effect [9, 29]: 5 (Herbicidal rate of 90% or more (almost completely withered))
- I: wild oat, herbicidal effect rating ([10]; AAH 320 g/ha): 0 (Herbicidal rate of 5% or less (almost no effect))
- M: velvetleaf, herbicidal effect rating ([11]; AAH 320 g/ha): 4 (Herbicidal rate of 70% or more and less than 90%)
- R: persian speedwell, herbicidal effect [12, 29]: 5 (Herbicidal rate of 90% or more (almost completely withered))
- J: blackgrass, herbicidal effect [13, 29]: 1 (Herbicidal rate of 5% or more and less than 20%)
- K: Italian ryegrass, herbicidal effect rating ([14]; AAH 320 g/ha): 2 (Herbicidal rate of 20% or more and less than 40%)
- H: barnyard grass, herbicidal effect [15, 29]: 0 (Herbicidal rate of 5% or less (almost no effect))
- herbicidal effect on D (Chinese sprangletop), rating 0-5 [16]: 0 (Herbicidal rate of 5% or less (almost no effect))
- J: blackgrass, herbicidal effect rating ([17]; AAH 320 g/ha): 0 (Herbicidal rate of 5% or less (almost no effect))
- I: wild oat, herbicidal effect [18, 29]: 1 (Herbicidal rate of 5% or more and less than 20%)
- P: chickweed, herbicidal effect rating ([19]; AAH 320 g/ha): 5 (Herbicidal rate of 90% or more (almost completely withered))
- K: Italian ryegrass, herbicidal effect [20, 29]: 4 (Herbicidal rate of 70% or more and less than 90%)
- Q: false cleavers, herbicidal effect rating ([21]; AAH 320 g/ha): 3 (Herbicidal rate of 40% or more and less than 70%)
- P: chickweed, herbicidal effect [22, 29]: 5 (Herbicidal rate of 90% or more (almost completely withered))
- M: velvetleaf, herbicidal effect [23, 29]: 5 (Herbicidal rate of 90% or more (almost completely withered))
- H: barnyard grass, herbicidal effect rating ([24]; AAH 320 g/ha): 0 (Herbicidal rate of 5% or less (almost no effect))
- R: persian speedwell, herbicidal effect rating ([25]; AAH 320 g/ha): 5 (Herbicidal rate of 90% or more (almost completely withered))
- herbicidal effect on H (barnyard grass), rating 0-5 [26]: 1 (Herbicidal rate of 5% or more and less than 20%)
- F: southern crabgrass, herbicidal effect rating ([27]; AAH 320 g/ha): 0 (Herbicidal rate of 5% or less (almost no effect))

SMILES: COc1ccc(-c2sc3c(F)cccc3c2-c2c(O)c(C)nn(C)c2=O)cc1 [4-005]
- herbicidal effect on F: southern crabgrass (evaluation grade 0-5) [1, 30]: 0 (Herbicidal rate of 5% or less (almost no effect))
- herbicidal effect on G: green foxtail (evaluation grade 0-5) [2, 30]: 5 (Herbicidal rate of 90% or more (almost completely withered))
- Herbicidal effect by soil treatment, L: windgrass [3, 31]: 0 (Herbicidal rate of 5% or less (almost no effect))
- Herbicidal effect by soil treatment, G: green foxtail [4, 31]: 5 (Herbicidal rate of 90% or more (almost completely withered))
- herbicidal effect on O: lambsquarters (evaluation grade 0-5) [6, 30]: 3 (Herbicidal rate of 40% or more and less than 70%)
- herbicidal effect on rice flat sedge (E) [7]: 5 (Herbicidal rate of 90% or more (almost completely withered))
- Herbicidal effect by soil treatment, O: lambsquarters [8, 31]: 4 (Herbicidal rate of 70% or more and less than 90%)
- herbicidal effect on N: redroot pigweed (evaluation grade 0-5) [9, 30]: 3 (Herbicidal rate of 40% or more and less than 70%)
- Herbicidal effect by soil treatment, I: wild oat [10, 31]: 0 (Herbicidal rate of 5% or less (almost no effect))
- Herbicidal effect by soil treatment, M: velvetleaf [11, 31]: 0 (Herbicidal rate of 5% or less (almost no effect))
- herbicidal effect on R: persian speedwell (evaluation grade 0-5) [12, 30]: 5 (Herbicidal rate of 90% or more (almost completely withered))
- herbicidal effect on J: blackgrass (evaluation grade 0-5) [13, 30]: 0 (Herbicidal rate of 5% or less (almost no effect))
- Herbicidal effect by soil treatment, K: Italian ryegrass [14, 31]: 0 (Herbicidal rate of 5% or less (almost no effect))
- herbicidal effect on H: barnyard grass (evaluation grade 0-5) [15, 30]: 3 (Herbicidal rate of 40% or more and less than 70%)
- herbicidal effect on Chinese sprangletop (D) [16]: 3 (Herbicidal rate of 40% or more and less than 70%)
- Herbicidal effect by soil treatment, N: redroot pigweed [28]: 0 (Herbicidal rate of 5% or less (almost no effect))
- Herbicidal effect by soil treatment, J: blackgrass [17, 31]: 0 (Herbicidal rate of 5% or less (almost no effect))
- herbicidal effect on I: wild oat (evaluation grade 0-5) [18, 30]: 0 (Herbicidal rate of 5% or less (almost no effect))
- Herbicidal effect by soil treatment, P: chickweed [19, 31]: 4 (Herbicidal rate of 70% or more and less than 90%)
- herbicidal effect on K: Italian ryegrass (evaluation grade 0-5) [20, 30]: 4 (Herbicidal rate of 70% or more and less than 90%)
- Herbicidal effect by soil treatment, Q: false cleavers [21, 31]: 0 (Herbicidal rate of 5% or less (almost no effect))
- herbicidal effect on P: chickweed (evaluation grade 0-5) [22, 30]: 5 (Herbicidal rate of 90% or more (almost completely withered))
- herbicidal effect on M: velvetleaf (evaluation grade 0-5) [23, 30]: 3 (Herbicidal rate of 40% or more and less than 70%)
- Herbicidal effect by soil treatment, H: barnyard grass [24, 31]: 4 (Herbicidal rate of 70% or more and less than 90%)
- Herbicidal effect by soil treatment, R: persian speedwell [25, 31]: 5 (Herbicidal rate of 90% or more (almost completely withered))
- herbicidal effect on barnyard grass (H) [26]: 4 (Herbicidal rate of 70% or more and less than 90%)
- Herbicidal effect by soil treatment, F: southern crabgrass [27, 31]: 0 (Herbicidal rate of 5% or less (almost no effect))
